Experimental data published in patent US20160120863A1, “SLC2A TRANSPORTER INHIBITORS” (IOMET PHARMA LTD., priority 2013, published 2016).

Columns and labels:
Format in all cases: cell-based
human GLUT4 = biological target: T1, human GLUT4 (Homo sapiens, UniProt P14672); experiment: [3H]-deoxy-D-glucose uptake assay, GLUT4; settings: [3H]-deoxy-D-glucose uptake in HEK293 cells stably expressing human GLUT4
T1 construct: expressed in transfected cells
T1 sequence (P14672 1-509): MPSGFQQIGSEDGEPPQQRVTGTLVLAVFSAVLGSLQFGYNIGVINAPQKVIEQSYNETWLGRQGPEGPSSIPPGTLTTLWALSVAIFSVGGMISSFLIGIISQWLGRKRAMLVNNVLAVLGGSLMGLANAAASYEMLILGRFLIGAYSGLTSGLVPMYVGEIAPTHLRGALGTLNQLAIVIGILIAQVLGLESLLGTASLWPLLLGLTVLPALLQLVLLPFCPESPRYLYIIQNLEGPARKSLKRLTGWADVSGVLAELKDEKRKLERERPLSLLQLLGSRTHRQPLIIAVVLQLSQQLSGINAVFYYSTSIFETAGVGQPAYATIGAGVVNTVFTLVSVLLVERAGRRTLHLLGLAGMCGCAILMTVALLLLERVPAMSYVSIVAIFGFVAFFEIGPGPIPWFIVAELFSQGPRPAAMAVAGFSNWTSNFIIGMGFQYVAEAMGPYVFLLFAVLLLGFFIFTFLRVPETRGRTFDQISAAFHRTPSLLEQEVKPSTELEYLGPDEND
Description: (§1) HEK293 cells were engineered to stably express either human GLUT1, GLUT2, GLUt3 or GLUT4 by transfection with the pReceiver-Lv105 plasmid, containing either hGLUT1, hGLUT2, hGLUT3, or hGLUT4 gene constructs with lipofectamine 2000, hGLUT1- hGLUT2- hGLUT3- or hGLUT4-overexpressing polyclonal populations were isolated under purinomycin selective pressure (1 μg/ml) and maintained in Dulbecco's modified Eagle's medium supplemented with 1 μg/ml purinomycin+10% foetal bovine serum (FBS).
(§2) 60,000 cells per well were seeded overnight into poly-D-lysine coasted 96-well plates. Following media removal, cells were washed twice in warm glucose-free uptake buffer (25 mM HEPES/KOH pH 7.4, 125 mM NaCl, 4.8 mM KCl, 1.2 mM MgSO4, 1.2 mM CaCl2, 1.2 mM KH2PO4). 90 μl of test compounds were added in glucose-free uptake buffer and cells were incubated at 37° C. for 30 min. 10 μl of [3H]-deoxy-D-glucose (0.25 μCi, 125 μM final assay concentration) was then added per well in glucose-free uptake buffer and uptake was allowed to proceed at 37° C. for 30 min.
(§3) Cells were then washed twice with ice-cold PBS and 100 μl of Microscint-20 was added per well. Glucose uptake was quantified with a scintillation counter. The half maximal inhibitory concentration (IC50) (a measure of the effectiveness of the test compound in inhibiting glucose uptake) was determined.

human GLUT3 = biological target: T2, human GLUT3 (Homo sapiens, UniProt P11169); experiment: [3H]-deoxy-D-glucose uptake assay, GLUT3; settings: [3H]-deoxy-D-glucose uptake in HEK293 cells stably expressing human GLUT3
T2 construct: expressed in transfected cells
T2 sequence (P11169 1-496): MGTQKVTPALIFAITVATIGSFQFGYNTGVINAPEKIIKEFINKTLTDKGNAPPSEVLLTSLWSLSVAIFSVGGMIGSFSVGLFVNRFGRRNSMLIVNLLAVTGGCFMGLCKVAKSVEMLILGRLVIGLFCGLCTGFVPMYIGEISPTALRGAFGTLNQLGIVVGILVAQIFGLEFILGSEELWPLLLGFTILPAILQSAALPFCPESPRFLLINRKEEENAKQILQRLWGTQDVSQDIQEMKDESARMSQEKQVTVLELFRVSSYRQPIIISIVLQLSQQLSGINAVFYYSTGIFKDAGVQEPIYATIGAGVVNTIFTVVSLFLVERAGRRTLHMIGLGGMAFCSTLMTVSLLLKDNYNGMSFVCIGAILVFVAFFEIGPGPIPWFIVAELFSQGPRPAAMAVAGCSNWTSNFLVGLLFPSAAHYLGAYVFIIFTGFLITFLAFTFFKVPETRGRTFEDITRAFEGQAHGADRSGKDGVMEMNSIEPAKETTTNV
Description: as §1, §2, §3

human GLUT1 = biological target: T3, human GLUT1 (Homo sapiens, UniProt P11166); experiment: [3H]-deoxy-D-glucose uptake assay, GLUT1; settings: [3H]-deoxy-D-glucose uptake in HEK293 cells stably expressing human GLUT1
T3 construct: expressed in transfected cells
T3 sequence (P11166 1-492): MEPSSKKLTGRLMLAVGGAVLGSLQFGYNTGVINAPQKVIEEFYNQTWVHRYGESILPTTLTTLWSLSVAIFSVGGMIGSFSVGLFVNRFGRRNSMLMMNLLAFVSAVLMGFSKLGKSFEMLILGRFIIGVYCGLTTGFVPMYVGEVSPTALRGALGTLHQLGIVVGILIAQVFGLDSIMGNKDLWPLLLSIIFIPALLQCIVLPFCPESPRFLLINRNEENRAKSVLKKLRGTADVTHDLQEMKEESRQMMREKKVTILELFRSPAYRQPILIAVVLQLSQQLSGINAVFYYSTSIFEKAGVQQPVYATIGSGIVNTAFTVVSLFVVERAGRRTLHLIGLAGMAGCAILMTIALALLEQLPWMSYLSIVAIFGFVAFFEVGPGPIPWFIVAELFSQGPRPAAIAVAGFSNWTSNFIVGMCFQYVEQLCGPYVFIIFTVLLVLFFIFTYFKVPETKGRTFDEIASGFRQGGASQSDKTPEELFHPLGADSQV
Procedure, shortened: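 HEK293 cells stably overexpressing human GLUT1 or GLUT2, seeded at 60,000 per well, treated with compounds in glucose-free uptake buffer for 30 min at 37 °C. [3H]-deoxy-D-glucose uptake quantified by scintillation counting after ice-cold PBS washes; IC50 determined.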

human GLUT2 = biological target: T4, human GLUT2 (Homo sapiens, UniProt P11168); experiment: [3H]-deoxy-D-glucose uptake assay, GLUT2; settings: [3H]-deoxy-D-glucose uptake in HEK293 cells stably expressing human GLUT2
T4 construct: expressed in transfected cells
T4 sequence (P11168 1-524): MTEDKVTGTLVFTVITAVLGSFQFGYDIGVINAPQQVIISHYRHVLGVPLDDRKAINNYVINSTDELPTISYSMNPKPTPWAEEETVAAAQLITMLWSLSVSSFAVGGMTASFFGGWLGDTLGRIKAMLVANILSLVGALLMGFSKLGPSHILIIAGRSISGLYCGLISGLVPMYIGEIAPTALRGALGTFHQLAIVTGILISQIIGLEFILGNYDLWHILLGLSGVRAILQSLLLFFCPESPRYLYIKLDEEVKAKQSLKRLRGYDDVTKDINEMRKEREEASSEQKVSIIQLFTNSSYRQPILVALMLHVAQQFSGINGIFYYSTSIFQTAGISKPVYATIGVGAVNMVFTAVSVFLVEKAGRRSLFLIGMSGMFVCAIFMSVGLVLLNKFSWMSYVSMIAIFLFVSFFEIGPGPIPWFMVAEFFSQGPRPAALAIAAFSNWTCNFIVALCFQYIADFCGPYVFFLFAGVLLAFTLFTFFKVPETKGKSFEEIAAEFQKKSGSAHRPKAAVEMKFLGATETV
Description: as §1
60,000 cells per well were seeded overnight into poly-D-lysine coasted 96-well plates. […] 90 μl of test compounds were added in glucose-free uptake buffer and cells were incubated at 37° C. for 30 min.
as §3

Row | Structure (SMILES) | GLUT4 pIC50 (human GLUT4) | GLUT3 pIC50 (human GLUT3) | GLUT1 pIC50 (human GLUT1) | GLUT2 pIC50 (human GLUT2)
1 | O=C(c1cccc(F)c1)N1CCN(Cc2c(-c3ccc(Cl)cc3)nc3ccc(-c4ccccc4)cn23)CC1 [Compound 8] | +++ (pIC50 ≧ 6.00) | +++ (pIC50 ≧ 6.00) | +++ (pIC50 ≧ 6.00) | +++ (pIC50 ≧ 6.00)
2 | Fc1ccc(-c2ccc3nc(-c4ccc(Cl)cc4)c(CN4CCOCC4)n3c2)cc1 [Compound 79] | ++ (pIC50 5.00-5.99) | + (pIC50 4.00-4.99) | +− (pIC50 < 4.00) | +− (pIC50 < 4.00)
3 | Fc1ccccc1-c1ccc2nc(-c3ccc(Cl)cc3)c(CN3CCOCC3)n2c1 [Compound 80] | +++ (pIC50 ≧ 6.00) | +++ (pIC50 ≧ 6.00) | +++ (pIC50 ≧ 6.00) | –
4 | Fc1cccc(F)c1-c1ccc2nc(-c3ccc(Cl)cc3)c(CN3CCOCC3)n2c1 [Compound 143] | +++ (pIC50 ≧ 6.00) | +++ (pIC50 ≧ 6.00) | +++ (pIC50 ≧ 6.00) | +++ (pIC50 ≧ 6.00)
5 | Clc1ccc(-c2nc3cnc(C4CC4)cn3c2CN2CCOCC2)cc1 [Compound 164] | +++ (pIC50 ≧ 6.00) | +++ (pIC50 ≧ 6.00) | +++ (pIC50 ≧ 6.00) | +++ (pIC50 ≧ 6.00)
6 | Cc1c(-c2ccccc2)ccc2nc(-c3ccc(Cl)cc3)c(CN3CCOCC3)n12 [Compound 170] | +++ (pIC50 ≧ 6.00) | +++ (pIC50 ≧ 6.00) | +++ (pIC50 ≧ 6.00) | –
7 | Fc1cccc(F)c1-c1cn2c(CN3CCOCC3)c(-c3ccc(Cl)cc3)nc2cn1 [Compound 238] | +++ (pIC50 ≧ 6.00) | +++ (pIC50 ≧ 6.00) | +++ (pIC50 ≧ 6.00) | +++ (pIC50 ≧ 6.00)
8 | Clc1ccc(-c2nc3cnc(C4CC4)cn3c2CN2CCNCC2)cc1 [Compound 348] | – | – | +− (pIC50 < 4.00) | +− (pIC50 < 4.00)
9 | Clc1ccc(-c2nc3ccc(-c4ccccc4)cn3c2CN2CCSCC2)cc1 [Compound 352] | – | – | +− (pIC50 < 4.00) | +− (pIC50 < 4.00)
10 | O=S1(=O)CCN(Cc2c(-c3ccc(Cl)cc3)nc3ccc(-c4ccccc4)cn23)CC1 [Compound 364] | – | – | ++ (pIC50 5.00-5.99) | +− (pIC50 < 4.00)

The remaining lines, values ahead:

Row | GLUT4 pIC50 (human GLUT4) | GLUT3 pIC50 (human GLUT3) | GLUT1 pIC50 (human GLUT1) | GLUT2 pIC50 (human GLUT2) | Structure (SMILES)
11 | +++ (pIC50 ≧ 6.00) | +++ (pIC50 ≧ 6.00) | +++ (pIC50 ≧ 6.00) | – | Clc1ccc(-c2nc3ccc(-c4ccccc4Cl)cn3c2CN2CCOCC2)cc1 [Compound 116]
12 | +++ (pIC50 ≧ 6.00) | +++ (pIC50 ≧ 6.00) | +++ (pIC50 ≧ 6.00) | +++ (pIC50 ≧ 6.00) | CC(=O)N1CCN(Cc2c(-c3ccc(Cl)cc3)nc3cnc(C4CC4)cn23)CC1 [Compound 187]
13 | +++ (pIC50 ≧ 6.00) | +++ (pIC50 ≧ 6.00) | +++ (pIC50 ≧ 6.00) | +++ (pIC50 ≧ 6.00) | CC(=O)N1CCN(Cc2c(-c3ccc(Cl)cc3)nc3ccc(-c4ccccc4C#N)cn23)CC1 [Compound 214]
14 | – | – | +− (pIC50 < 4.00) | +− (pIC50 < 4.00) | CC(=O)N1CCN(Cc2c(-c3ccc(Cl)cc3Cl)nc3cnc(NS(C)(=O)=O)cn23)CC1 [Compound 344]
15 | – | – | +++ (pIC50 ≧ 6.00) | ++ (pIC50 5.00-5.99) | CS(=O)(=O)Nc1ccc2nc(-c3ccc(Cl)cc3Cl)c(CN3CCn4ncnc4C3)n2c1 [Compound 345]
16 | – | – | +++ (pIC50 ≧ 6.00) | ++ (pIC50 5.00-5.99) | CC(=O)N1CCN(Cc2c(-c3ccc(Cl)cc3Cl)nc3cnc(N(C)S(C)(=O)=O)cn23)CC1 [Compound 347]
17 | – | – | ++ (pIC50 5.00-5.99) | +− (pIC50 < 4.00) | CC(=O)N1CCN(Cc2c(-c3ccc(Cl)cc3Cl)nc3cnccn23)CC1 [Compound 349]
18 | – | – | +++ (pIC50 ≧ 6.00) | +++ (pIC50 ≧ 6.00) | CC(=O)N1CCN(Cc2c(-c3ccc(Cl)cc3Cl)nc3ccc(N4CCCCS4(=O)=O)cn23)CC1 [Compound 354]
19 | – | – | +++ (pIC50 ≧ 6.00) | ++ (pIC50 5.00-5.99) | CS(=O)(=O)Nc1ccc2nc(-c3ccc(Cl)cc3Cl)c(CN3CCOCC3)n2c1 [Compound 357]
20 | – | – | +++ (pIC50 ≧ 6.00) | +++ (pIC50 ≧ 6.00) | CC(=O)N1CCN(Cc2c(-c3ccc(Cl)cc3Cl)nc3cnc(C(C)C)cn23)CC1 [Compound 358]
21 | – | – | +++ (pIC50 ≧ 6.00) | ++ (pIC50 5.00-5.99) | CS(=O)(=O)Nc1ccc2nc(-c3ccc(Cl)cc3Cl)c(CN3CCNC(=O)C3)n2c1 [Compound 359]
22 | – | – | +++ (pIC50 ≧ 6.00) | ++ (pIC50 5.00-5.99) | CS(=O)(=O)Nc1ccc2nc(-c3ccc(Cl)cc3Cl)c(CN3CCCOCC3)n2c1 [Compound 362]
23 | – | – | ++ (pIC50 5.00-5.99) | +− (pIC50 < 4.00) | CS(=O)(=O)c1ccc2nc(-c3ccc(Cl)cc3)c(CN3CCOCC3)n2c1 [Compound 379]
24 | – | – | +++ (pIC50 ≧ 6.00) | ++ (pIC50 5.00-5.99) | CC(=O)N1CCN(Cc2c(-c3ccc(Cl)cc3)nc3ccc(S(=O)(=O)N4CCCC4)cn23)CC1 [Compound 383]
25 | – | – | +++ (pIC50 ≧ 6.00) | ++ (pIC50 5.00-5.99) | CCNS(=O)(=O)c1ccc2nc(-c3ccc(Cl)cc3)c(CN3CCN(C(C)=O)CC3)n2c1 [Compound 384]
